The values below come from paper PMC2248166, “Quantitative peptide binding motifs for 19 human and mouse MHC class I molecules derived using positional scanning combinatorial peptide libraries” (Immunome Research, 2008).

pIC50: −log10 of the molar value. Where a SMILES comes first, the peptide text is derived from it.

Holding throughout (assay): biochemical
Holding throughout (assay type): binding

In assay [1] the target is HLA A*3001 (Homo sapiens, UniProt P04439, D140H/D185E/E176W/F33S/G80R/H175R/K168Q/R138E/R41S).
HLA A*3001, sequence (P04439 25-365 limits assumed, stated change not applied): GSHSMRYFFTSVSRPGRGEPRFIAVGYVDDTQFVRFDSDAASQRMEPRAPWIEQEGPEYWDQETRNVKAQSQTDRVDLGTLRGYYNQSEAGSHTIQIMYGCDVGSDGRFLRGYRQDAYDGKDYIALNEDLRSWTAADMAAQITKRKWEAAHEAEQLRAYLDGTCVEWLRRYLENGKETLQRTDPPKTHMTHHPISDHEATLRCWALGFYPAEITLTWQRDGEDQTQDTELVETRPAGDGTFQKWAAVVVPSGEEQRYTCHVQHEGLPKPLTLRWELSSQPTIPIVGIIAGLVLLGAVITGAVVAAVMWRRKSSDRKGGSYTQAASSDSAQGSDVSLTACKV
The target of assay [2] is HLA A*3201 (Homo sapiens, UniProt P04439, A270S/D101S/D185E/E176V/E277Q/F133L/G103R/G107R/G231S/H175R/I121M/I218V/I322F/K168Q/L105A/L300P/L318F/M331R/P208A/P217A/Q94H/R106L/R138Q/S129P/T104I/T323A/T345S/V100E/V321M/V358M).
Assay [3] has as its target HLA B*1501 (Homo sapiens, UniProt P01889, A329T/A93T/A95T/C349S/D201E/D98Y/E187L/E204Q/E69M/E70A/K202T/N87E/Q94N/R155S/R180W/S121R/S35A/S48A/V306I/V36M/Y140S/Y91S).
The target of assay [4] is HLA B*1503 (Homo sapiens, UniProt P01889, A329T/A93T/A95T/C349S/D201E/D98Y/E187L/E204Q/K202T/N87E/Q94N/R155S/R180L/S121R/S35A/V306I/V36M/Y140S/Y91S).

Broadly, the pIC50 is the negative decadic logarithm of the IC50, by convention in mol/L. A lower pIC50 goes with a large IC50. As for `CC(C)[C@H](NC(=O)[C@H](Cc1ccccc1)NC(=O)[C@@H](NC(=O)[C@H](Cc1c[nH]cn1)NC(=O)[C@H](CCC(=O)O)NC(=O)[C@H](CCCNC(=N)N)NC(=O)[C@@H](NC(=O)[C@@H](N)CCCCN)C(C)C)[C@@H](C)O)C(=O)N[C@@H](CCCCN)C(=O)O` [3102.0071] (H-KVREHTFVK-OH), the negative-log IC50 (pIC50) was 8.68 in assay [1] and 6.83 in assay [2].
In the case of `CC[C@H](C)[C@H](N)C(=O)N[C@H](C(=O)N[C@@H](Cc1ccc(O)cc1)C(=O)N[C@@H](CO)C(=O)N[C@@H](CC(C)C)C(=O)N[C@H](C(=O)N[C@H](C(=O)N[C@H](C(=O)N[C@H](C(=O)O)[C@@H](C)CC)[C@@H](C)O)[C@@H](C)O)C(C)C)C(C)C` [3102.0292] (H-IVYSLVTTI-OH), the figures for the negative logarithm of the IC50 (pIC50) in assay [1] and in assay [2] were 7.80 and 8.44, respectively.
On to `CC[C@H](C)[C@H](NC(=O)[C@@H](NC(=O)[C@@H](N)CCCCN)[C@@H](C)O)C(=O)N[C@@H](Cc1ccc(O)cc1)C(=O)N[C@@H](C)C(=O)N[C@H](C(=O)N[C@@H](CC(=O)O)C(=O)N[C@@H](CO)C(=O)N[C@@H](Cc1ccccc1)C(=O)O)C(C)C` [3102.0340] (H-KTIYAVDSF-OH), for which the pIC50 in assay [2] was 8.17; in assay [3] it was 8.40.
Take `CC[C@H](C)[C@H](NC(=O)[C@@H](NC(=O)[C@@H](N)CC(C)C)[C@@H](C)O)C(=O)N[C@@H](C)C(=O)N[C@@H](CS)C(=O)N[C@@H](CCCNC(=N)N)C(=O)N[C@H](C(=O)N[C@@H](CO)C(=O)N[C@@H](CC(C)C)C(=O)O)C(C)C` [3102.0376] (H-LTIACRVSL-OH): the pIC50 was 7.02 in assay [2] and 7.12 in assay [3].
In the case of `CC[C@H](C)[C@H](N)C(=O)N[C@H](C(=O)N[C@H](C(=O)N1CCC[C@H]1C(=O)N[C@@H](CC(C)C)C(=O)N[C@@H](CO)C(=O)N[C@H](C(=O)N[C@@H](CO)C(=O)N[C@H](C(=O)O)[C@@H](C)CC)C(C)C)[C@@H](C)CC)[C@@H](C)CC` [3102.0502] (H-IIIPLSVSI-OH), the pIC50 was 7.15 in assay [2] and 6.52 in assay [3].
Take `CC[C@H](C)[C@H](N)C(=O)N[C@H](C(=O)N[C@@H](C)C(=O)N[C@@H](Cc1c[nH]cn1)C(=O)N[C@@H](CC(C)C)C(=O)N[C@H](C(=O)N[C@@H](CC(N)=O)C(=O)N[C@@H](CO)C(=O)N[C@@H](CC(C)C)C(=O)O)C(C)C)[C@@H](C)O` [3102.0503] (H-ITAHLVNSL-OH): the pIC50 in assay [2] was 6.74; in assay [3], 8.19.
Turning to `CC(C)C[C@H](NC(=O)[C@@H](N)CCCNC(=N)N)C(=O)N[C@@H](Cc1ccccc1)C(=O)N[C@@H](Cc1ccc(O)cc1)C(=O)N[C@H](C(=O)N[C@@H](Cc1ccccc1)C(=O)N[C@@H](Cc1ccccc1)C(=O)N[C@@H](CO)C(=O)N[C@@H](Cc1ccc(O)cc1)C(=O)O)[C@@H](C)O` [3102.0803] (H-RLFYTFFSY-OH), the pIC50 was 9.72 in assay [2] and 9.43 in assay [3].
For `CC[C@H](C)[C@H](NC(=O)[C@H](CC(C)C)NC(=O)[C@@H](N)CCCNC(=N)N)C(=O)N[C@H](C(=O)N[C@@H](CC(C)C)C(=O)N[C@@H](Cc1ccccc1)C(=O)N[C@@H](CCC(=O)O)C(=O)N[C@H](C(=O)N[C@@H](Cc1ccccc1)C(=O)O)C(C)C)C(C)C` [3102.0817] (H-RLIVLFEVF-OH), in that order: 7.89 and 8.17.
As for `CC[C@H](C)[C@H](NC(=O)[C@@H](N)CCSC)C(=O)N[C@@H](Cc1ccccc1)C(=O)N[C@@H](Cc1ccccc1)C(=O)N[C@@H](CC(N)=O)C(=O)N1CCC[C@H]1C(=O)N[C@H](C(=O)N[C@@H](CO)C(=O)N[C@@H](Cc1ccccc1)C(=O)O)C(C)C` [3102.0841] (H-MIFFNPVSF-OH), the negative logarithm of the IC50 (pIC50) in assay [2] is 9.34; in assay [3] it was 8.03.
Regarding `CC[C@H](C)[C@H](NC(=O)[C@H](CO)NC(=O)[C@@H](N)CCSC)C(=O)N[C@@H](CCSC)C(=O)N1CCC[C@H]1C(=O)N[C@H](C(=O)N[C@@H](CC(C)C)C(=O)N[C@@H](C)C(=O)N[C@@H](Cc1ccc(O)cc1)C(=O)O)C(C)C` [3102.0858] (H-MSIMPVLAY-OH), the pIC50 was 7.00 in assay [2] and 8.85 in assay [3].
The corresponding values for `CC(C)C[C@H](NC(=O)[C@@H](N)CC(C)C)C(=O)N[C@@H](Cc1ccc(O)cc1)C(=O)N[C@H](C(=O)N[C@@H](C)C(=O)N[C@@H](CC(N)=O)C(=O)N[C@@H](Cc1ccccc1)C(=O)N[C@H](C(=O)N[C@@H](Cc1ccccc1)C(=O)O)[C@@H](C)O)[C@@H](C)O` [3102.0873] (H-LLYTANFTF-OH) are 8.17 and 8.62.
With `CC[C@H](C)[C@H](NC(=O)[C@@H]1CCCN1C(=O)[C@H](CCC(=O)O)NC(=O)[C@H](CCC(=O)O)NC(=O)[C@H](CC(C)C)NC(=O)[C@H](Cc1ccc(O)cc1)NC(=O)[C@H](Cc1ccccc1)NC(=O)[C@H](CC(C)C)NC(=O)[C@@H](N)CCSC)C(=O)O` [3102.0881] (H-MLFYLEEPI-OH), the results for the pIC50 in assay [2] and in assay [3] were 8.60 and 7.35, respectively.
Take `CC[C@H](C)[C@H](NC(=O)[C@@H](NC(=O)[C@@H](N)CO)[C@@H](C)CC)C(=O)N[C@@H](CO)C(=O)N[C@@H](CC(C)C)C(=O)N[C@@H](Cc1ccccc1)C(=O)N[C@@H](Cc1ccc(O)cc1)C(=O)N[C@H](C(=O)N[C@@H](Cc1ccccc1)C(=O)O)[C@@H](C)O` [3102.0919] (H-SIISLFYTF-OH): the negative-log IC50 (pIC50) was 8.24 in assay [2] and 8.85 in assay [3].
Consider `CC(C)C[C@H](N)C(=O)N[C@H](C(=O)N[C@@H](Cc1ccccc1)C(=O)N[C@@H](CC(=O)O)C(=O)N[C@@H](Cc1ccc(O)cc1)C(=O)N[C@H](C(=O)N[C@H](C(=O)N[C@H](C(=O)N[C@@H](Cc1ccccc1)C(=O)O)[C@@H](C)O)C(C)C)C(C)C)[C@@H](C)O` [3102.0931] (H-LTFDYVVTF-OH), for which the results for the pIC50 in assay [2] and in assay [3] were 7.77 and 8.60, respectively.
Regarding `CC[C@H](C)[C@H](NC(=O)[C@@H](NC(=O)[C@@H](N)CC(C)C)[C@@H](C)CC)C(=O)N[C@H](C(=O)N[C@@H](CCCCN)C(=O)N[C@H](C(=O)N[C@@H](Cc1ccccc1)C(=O)N[C@@H](CO)C(=O)N[C@@H](Cc1ccccc1)C(=O)O)C(C)C)[C@@H](C)O` [3102.1011] (H-LIITKVFSF-OH), the pIC50 in assay [2] was 7.08; in assay [3], 8.11.
Turning to `CC[C@H](C)[C@H](NC(=O)[C@@H](N)CC(N)=O)C(=O)N[C@@H](Cc1ccccc1)C(=O)N1CCC[C@H]1C(=O)N[C@@H](Cc1ccccc1)C(=O)N[C@@H](Cc1ccccc1)C(=O)N[C@H](C(=O)N[C@@H](C)C(=O)N[C@@H](Cc1ccccc1)C(=O)O)C(C)C` [3102.1019] (H-NIFPFFVAF-OH), the pIC50 was 7.92 in assay [2] and 8.66 in assay [3].
Turning to `CC[C@H](C)[C@H](NC(=O)[C@@H](NC(=O)[C@@H](N)CCCCN)[C@@H](C)O)C(=O)N[C@@H](C)C(=O)N[C@@H](CCCNC(=N)N)C(=O)N[C@@H](Cc1ccccc1)C(=O)N[C@H](C(=O)N[C@@H](Cc1ccc(O)cc1)C(=O)N[C@@H](Cc1ccccc1)C(=O)O)[C@@H](C)O` [3102.1031] (H-KTIARFTYF-OH), the values for the negative logarithm of the IC50 (pIC50) in assay [2] and in assay [3] were 7.02 and 9.70, respectively.
`CC(C)C[C@H](NC(=O)[C@H](Cc1ccccc1)NC(=O)[C@H](Cc1c[nH]c2ccccc12)NC(=O)[C@H](CC(C)C)NC(=O)[C@@H](N)CC(C)C)C(=O)N[C@H](C(=O)NCC(=O)N[C@H](C(=O)N[C@@H](Cc1ccccc1)C(=O)O)[C@@H](C)O)[C@@H](C)O` [3102.1045] (H-LLWFLTGTF-OH): the pIC50 in assay [2] was 7.03; in assay [3], 9.11.
For `CC(C)C[C@H](NC(=O)[C@@H](N)CCCCN)C(=O)N[C@@H](CC(N)=O)C(=O)N[C@@H](CC(N)=O)C(=O)N[C@H](C(=O)N[C@@H](Cc1ccccc1)C(=O)N[C@@H](Cc1ccc(O)cc1)C(=O)N[C@H](C(=O)N[C@@H](Cc1ccccc1)C(=O)O)C(C)C)C(C)C` [3102.1169] (H-KLNNVFYVF-OH), in that order: 9.28 and 8.92.
For `CC[C@H](C)[C@H](NC(=O)[C@H](CO)NC(=O)[C@H](CC(N)=O)NC(=O)[C@H](CC(C)C)NC(=O)[C@@H](N)CO)C(=O)N[C@@H](Cc1ccccc1)C(=O)N[C@@H](CC(N)=O)C(=O)N[C@H](C(=O)N[C@@H](Cc1ccccc1)C(=O)O)[C@@H](C)O` [3102.1238] (H-SLNSIFNTF-OH), the pIC50 in assay [2] is 7.85; in assay [3] it was 8.66.
Turning to `CC[C@H](C)[C@H](N)C(=O)N[C@@H](CC(C)C)C(=O)N[C@@H](CCSC)C(=O)N[C@H](C(=O)N[C@@H](Cc1ccccc1)C(=O)N[C@H](C(=O)N[C@@H](CO)C(=O)N[C@@H](CO)C(=O)N[C@@H](Cc1ccccc1)C(=O)O)[C@@H](C)CC)[C@@H](C)CC` [3102.1302] (H-ILMIFISSF-OH), the values for the negative-log IC50 (pIC50) in assay [2] and in assay [4] were 7.06 and 7.92, respectively.
The corresponding values for `CC[C@H](C)[C@H](N)C(=O)N[C@H](C(=O)N[C@@H](Cc1ccccc1)C(=O)N[C@@H](CCSC)C(=O)N[C@@H](CC(N)=O)C(=O)N[C@@H](CC(C)C)C(=O)N[C@@H](Cc1ccc(O)cc1)C(=O)N[C@@H](CO)C(=O)N[C@@H](Cc1ccccc1)C(=O)O)[C@@H](C)CC` [3102.1328] (H-IIFMNLYSF-OH) are 8.89 and 7.96.
`CSCC[C@H](NC(=O)[C@H](Cc1ccc(O)cc1)NC(=O)[C@H](CC(C)C)NC(=O)[C@@H](N)CC(C)C)C(=O)N[C@@H](Cc1ccccc1)C(=O)N1CCC[C@H]1C(=O)N[C@@H](CC(N)=O)C(=O)N[C@@H](CC(C)C)C(=O)N[C@@H](Cc1ccccc1)C(=O)O` [3102.1335] (H-LLYMFPNLF-OH): the pIC50 was 7.05 in assay [2] and 9.96 in assay [4].
